# Assay results: patent publication US10654837B2, “Sulphamoylaryl derivatives and use thereof as medicaments for the treatment of liver fibrosis” (Janssen Pharmaceutica NV, priority 2017, dated 2020)
# Molecular target: T1, 5HTR2B (Homo sapiens, UniProt P41595)
# T1 construct: host or cells: human Maverick/293 cells
# Assay: 5HTR2B antagonist activity, calcium mobilization assay in human Maverick/293 cells (serotonin as agonist)
# Assay type: cell-based
# Details: intracellular calcium, emission 525 nm, read-out: Ca assay IC50
# Outline: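 Calcium mobilization read over 80 s at ex 485/em 525 nm after serotonin addition. Before that, 2 h serum-free starvation, 50 min dye loading at 37 °C, and 15-30 min antagonist exposure. IC50 from sigmoidal fit of peak % inhibition.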
# T1 sequence (P41595 whole entry): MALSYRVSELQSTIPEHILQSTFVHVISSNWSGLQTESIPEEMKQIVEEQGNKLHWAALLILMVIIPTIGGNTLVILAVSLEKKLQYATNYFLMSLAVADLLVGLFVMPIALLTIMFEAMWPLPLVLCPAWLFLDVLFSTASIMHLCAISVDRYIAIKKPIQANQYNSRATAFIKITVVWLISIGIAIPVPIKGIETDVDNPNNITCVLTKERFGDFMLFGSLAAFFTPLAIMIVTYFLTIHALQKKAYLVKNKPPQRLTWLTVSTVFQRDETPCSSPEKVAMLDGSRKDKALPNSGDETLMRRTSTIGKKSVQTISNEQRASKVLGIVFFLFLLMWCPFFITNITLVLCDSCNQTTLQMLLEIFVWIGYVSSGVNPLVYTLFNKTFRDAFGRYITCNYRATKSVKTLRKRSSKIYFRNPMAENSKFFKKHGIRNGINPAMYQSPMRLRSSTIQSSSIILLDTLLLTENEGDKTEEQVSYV
row,SMILES,IC50
1,"COc1ccc(S(=O)(=O)N[C@H]2CCOC2)cc1C(=O)Nc1c(F)cccc1Cl [Compound 103, (S)—N-(2-Chloro-6-fluorophenyl)-2-methoxy-5-(N-(tetrahydrofuran-3-yl)sulfamoyl)benzamide]",8.4 nM
2,"COc1ccc(S(=O)(=O)N[C@H]2CCOC2)cc1C(=O)Nc1ccc(Cl)c(Cl)c1 [Compound 72, (S)—N-(3,4-Dichlorophenyl)-2-methoxy-5-(N-(tetrahydrofuran-3-yl)sulfamoyl) benzamide]",5.1 nM
3,"COc1ccc(S(=O)(=O)N[C@H]2CCOC2)cc1C(=O)Nc1ccccc1Br [Compound 123, (S)—N-(2-Bromophenyl)-2-methoxy-5-(N-(tetrahydrofuran-3-yl)sulfamoyl) benzamide]",0.2 nM
4,"COc1ccc(S(=O)(=O)N[C@@H]2CC[C@H](O)C2)cc1C(=O)Nc1ccc(F)c(C)c1 (single isomer, unassigned) [Compound 15b, N-(4-Fluoro-3-methylphenyl)-5-(N-((cis)-3-hydroxycyclopentyl)sulfamoyl)-2-methoxybenzamide]",1 nM
5,"COc1cc(F)c(S(=O)(=O)N[C@H]2CCOC2)cc1C(=O)Nc1ccc(F)c(C)c1 [Compound 201, (S)-4-fluoro-N-(4-fluoro-3-methylphenyl)-2-methoxy-5-(N-(tetrahydrofuran-3-yl)sulfamoyl)benzamide]",8.6 nM
6,"COc1ccc(S(=O)(=O)NC2CC[C@H](O)C2)cc1C(=O)Nc1ccc(F)c(C)c1 (stereo in doubt) [Compound 15a, N-(4-Fluoro-3-methylphenyl)-5-(N-((cis)-3-hydroxycyclopentyl)sulfamoyl)-2-methoxybenzamide]",2 nM
7,"COc1ccc(S(=O)(=O)N[C@H]2CCOC2)cc1C(=O)Nc1cc(F)ccc1Cl [Compound 70, (S)—N-(2-Chloro-5-fluorophenyl)-2-methoxy-5-(N-(tetrahydrofuran-3-yl)sulfamoyl)benzamide]",0.3 nM
8,"COc1ccc(S(=O)(=O)N[C@H]2CCNC2)cc1C(=O)Nc1ccc(F)c(C)c1 [Compound 187, (S)—N-(4-fluoro-3-methylphenyl)-2-methoxy-5-(N-(pyrrolidin-3-yl)sulfamoyl) benzamide]",0.7 nM
9,"COc1ccc(S(=O)(=O)N[C@H]2CCOC2)cc1C(=O)Nc1ccc(C)cc1 [Compound 129, (S)-2-Methoxy-5-(N-(tetrahydrofuran-3-yl)sulfamoyl)-N-(p-tolyl)benzamide]",12 nM
10,COc1ccc(S(N)(=O)=O)cc1C(=O)Nc1ccc(F)c(C)n1 [Compound 22],610 nM
11,"COc1ccc(S(=O)(=O)N[C@H]2CCOC2)cc1C(=O)Nc1ncc(F)cc1C [Compound 132, (S)—N-(5-fluoro-3-methylpyridin-2-yl)-2-methoxy-5-(N-(tetrahydrofuran-3-yl)sulfamoyl)benzamide]",163 nM
12,"COc1ccc(S(=O)(=O)N[C@H]2CCOC2)cc1C(=O)Nc1c(F)ccc(Cl)c1F [Compound 93, (S)—N-(3-Chloro-2,6-difluorophenyl)-2-methoxy-5-(N-(tetrahydrofuran-3-yl)sulfamoyl)benzamide]",1060 nM
13,"COc1ccc(S(=O)(=O)NC2CC(C)C2)cc1C(=O)Nc1ccc(F)c(C)c1 (stereo not shown) [Compound 7, N-(4-Fluoro-3-methylphenyl)-2-methoxy-5-(N-(3-methylcyclobutyl)sulfamoyl) benzamide]",5.4 nM
14,"COc1ccc(S(=O)(=O)N[C@H]2CCOC2)cc1C(=O)Nc1c(Cl)cccc1Cl [Compound 81, (S)—N-(2,6-Dichlorophenyl)-2-methoxy-5-(N-(tetrahydrofuran-3-yl)sulfamoyl) benzamide]",32 nM
15,"COc1ccc(S(=O)(=O)N[C@H]2CCOC2)cc1C(=O)Nc1ccccc1Cl [Compound 127, (S)—N-(2-Chlorophenyl)-2-methoxy-5-(N-(tetrahydrofuran-3-yl)sulfamoyl) benzamide]",0.1 nM
16,"Cc1nc(NC(=O)c2cc(S(=O)(=O)N[C@H]3CCOC3)ccc2OC(C)C)ccc1F [Compound 197, (S)—N-(5-fluoro-6-methylpyridin-2-yl)-2-isopropoxy-5-(N-(tetrahydrofuran-3-yl)sulfamoyl)benzamide]",5.3 nM
17,"COc1ccc(S(=O)(=O)NC(C)C(N)=O)cc1C(=O)Nc1ccc(F)c(C)c1 (stereo not shown) [Compound 12, 5-(N-(1-Amino-1-oxopropan-2-yl)sulfamoyl)-N-(4-fluoro-3-methylphenyl)-2-methoxybenzamide]",9.3 nM
18,"COc1ccc(S(=O)(=O)N[C@H]2CCOC2)cc1C(=O)Nc1cc(F)cc(C#N)c1 [Compound 87, (S)—N-(3-Cyano-5-fluorophenyl)-2-methoxy-5-(N-(tetrahydrofuran-3-yl)sulfamoyl)benzamide]",29 nM

# Further lines, results first:
row,IC50,SMILES
1,1.8 nM,"COc1ccc(S(=O)(=O)N[C@@H](C)C(N)=O)cc1C(=O)Nc1ccc(F)cc1 [Compound 46b, (S)-5-(N-(1-Amino-1-oxopropan-2-yl)sulfamoyl)-N-(4-fluorophenyl)-2-methoxybenzamide]"
2,4.5 nM,"COc1ccc(S(=O)(=O)N[C@H](C)CO)cc1C(=O)Nc1ccc(F)cc1 [Compound 52b, (R)—N-(4-fluorophenyl)-5-(N-(1-hydroxypropan-2-yl)sulfamoyl)-2-methoxybenzamide]"
3,1.2 nM,"COc1ccc(S(=O)(=O)NC2CCN(C)C2=O)cc1C(=O)Nc1ccccc1Cl (single isomer, unassigned) [Compound 54b, (R*)—N-(2-Chlorophenyl)-2-methoxy-5-(N-(1-methyl-2-oxopyrrolidin-3-yl)sulfamoyl)benzamide]"
4,0.8 nM,"COc1ccc(S(=O)(=O)N[C@H]2C[C@H](O)C2)cc1C(=O)Nc1cc(F)ccc1Cl [Compound 146a, N-(2-chloro-5-fluorophenyl)-5-(N-((trans)-3-hydroxycyclobutyl)sulfamoyl)-2-methoxybenzamide]"
5,0.4 nM,"COc1ccc(S(=O)(=O)N[C@@H]2CC[C@H](O)C2)cc1C(=O)Nc1ccc(F)c(C(F)F)c1 (single isomer, unassigned) [Compound 33a, N-(3-(Difluoromethyl)-4-fluorophenyl)-5-(N-((cis)-3-hydroxycyclopentyl)sulfamoyl)-2-methoxybenzamide]"
6,2.1 nM,"COCCOC[C@@H](C)NS(=O)(=O)c1ccc(OC)c(C(=O)Nc2ccc(F)cc2F)c1 [Compound 147b, (R)—N-(2,4-Difluorophenyl)-2-methoxy-5-(N-(1-(2-methoxyethoxy)propan-2-yl)sulfamoyl)benzamide]"
7,1.1 nM,"COc1ccc(S(=O)(=O)NC2CCCOC2)cc1C(=O)Nc1ccc(F)c(C)n1 (single isomer, unassigned) [Compound 16a, (S*)—N-(5-Fluoro-6-methylpyridin-2-yl)-2-methoxy-5-(N-(tetrahydro-2H-pyran-3-yl)sulfamoyl)benzamide]"
8,0.3 nM,"COc1ccc(S(=O)(=O)N[C@H]2C[C@@H](O)C2)cc1C(=O)Nc1ccc(F)cc1Cl [Compound 144b, N-(2-chloro-4-fluorophenyl)-5-(N-((cis)-3-hydroxycyclobutyl)sulfamoyl)-2-methoxybenzamide]"
9,56 nM,"COc1ccc(N(C)S(=O)(=O)C2CCOC2)cc1C(=O)Nc1ccc(F)c(C)c1 (single isomer, unassigned) [Compound 204b, (S*)—N-(4-Fluoro-3-methylphenyl)-2-methoxy-5-(N-methyltetrahydrofuran-3-sulfonamido)benzamide]"
10,8.5 nM,"COCC(C)NS(=O)(=O)c1ccc(OC)c(C(=O)Nc2ccc(F)c(C(F)F)c2)c1 (single isomer, unassigned) [Compound 32b, (S*)—N-(3-(Difluoromethyl)-4-fluorophenyl)-2-methoxy-5-(N-(1-methoxypropan-2-yl)sulfamoyl)benzamide]"
